The target in data set [1] is T1, human peroxisome proliferator-activated receptor (PPAR) α (Homo sapiens, UniProt Q07869).
T1 construct: expressed in transfected cells; host or cells: CHO cells
T1 sequence (Q07869 239-466 limits assumed): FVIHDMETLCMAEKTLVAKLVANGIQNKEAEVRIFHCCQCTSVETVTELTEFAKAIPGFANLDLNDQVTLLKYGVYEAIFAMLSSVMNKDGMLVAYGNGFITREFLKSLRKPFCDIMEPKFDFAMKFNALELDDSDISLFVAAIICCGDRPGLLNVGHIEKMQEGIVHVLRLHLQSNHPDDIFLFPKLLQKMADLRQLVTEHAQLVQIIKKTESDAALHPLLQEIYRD
The data set is described as follows: Test of transcriptional activation on human PPARα (luciferase reporter, transfected CHO cells). In kind it is cell-based. The conditions noted are these: CHO cells cotransfected with yeast DNA-binding domain/human PPARα ligand-binding domain fusion and reporter plasmid; luciferase after 24 hours, corrected with Renilla internal standard. The protocol:
Test of Transcriptional Activation on Human Peroxisome Proliferator-activated Receptor (PPAR) α
The CHO cells were cultured in a Dulbecco-modified Eagle's medium containing 10% delipid fetal calf serum (FCS/DMEM). To these cells were cotransfected receptor plasmid and its reporter plasmid (STRATAGENE Corp.) that express fused protein of DNA-binding domain being transcription factor of yeast with ligand-binding domain of human PPARα (Biochemistry, 1993, 32, 5598), and luciferase plasmid of Renilla (Promega Corp.) for internal standard, using lipofectamine. Thereafter, testing compound or (8S)-HETE being a control compound was added in the 10% SFCS/DMEM and both luciferase activities were measured after 24 hours, which were corrected with internal standard.

The test system of another data set is male Beagle dog. The data set is described as follows: Test of lipid-lowering effect in Beagle dog. It is filed as in vivo. The conditions noted are these: serum; oral 0.03 mg/kg/day once a day for 14 days; before vs after administration. The protocol:
Test of Lipid-lowering Effect
To a 27-month old male Beagle dog (HRA Beagle; Convance Research Products Inc.) was orally administered testing compound (0.3 mg/mL) in weak aqueous alkali solution sealed in a gelatin capsule once a day for continuous 14 days (0.03 mg/kg/day). For the feed during the period of administration, standard diet (Canine diet, PMI nutrition International Inc.) was used. Blood was collected before start of administration and after administration for 14 days, and total cholesterol value in serum and triglyceride value were measured by enzymic method [Cholesterol E-Test Wako (Wako Pure Chemical Industries,Ltd.), Liquitec TGII reagent 1, 2 (Rosch) and standard serum for measurement of lipid (Rosch) were used]. The decreasing rates of total cholesterol value and triglyceride value were calculated, respectively, according to following calculation formula. Decreasing rate (%)=(Measured value before administration−Measured value after administration)/Measured value before administration×100 [Result]

Broadly, the melting point is the temperature, or range, at which the solid turns liquid. For orientation: EC50 means the concentration at which the effect is half-maximal. Lower therefore signals higher potency in that assay.

`CC[C@@H](Cc1ccc(OC)c(C(=O)NCc2ccc(Oc3cc(Cl)cc(Cl)c3)cc2)c1)C(=O)O` [Example 30, (2S)-2-{[4-Methoxy-3-(N-{[4-(3,5-dichlorophenoxy)phenyl]methyl}carbamoyl)phenyl]methyl}butyric Acid] came in with a melting point of 145 to 148 °C.
`CC[C@@H](Cc1ccc(OC)c(C(=O)NCc2ccc(Oc3cccc(F)c3F)cc2)c1)C(=O)O` [Example 11, (2S)-2-{[3-(N-{[4-(2,3-Difluorophenoxy)phenyl]methyl}carbamoyl)-4-methoxyphenyl]methyl}butyric acid] registered a melting point of 93 to 95 °C.
For the compound `CC[C@@H](Cc1ccc(OC)c(C(=O)NCc2ccc(Oc3c(F)cccc3F)cc2)c1)C(=O)O` [Example 14, (2S)-2-{[3-(N-{[4-(2,6-Difluorophenoxy)phenyl]methyl}carbamoyl)-4-methoxyphenyl]methyl}butyric acid], the melting point is 106 to 108 °C.
Consider `CC[C@@H](Cc1ccc(OC)c(C(=O)NCc2ccc(Oc3ccc(Cl)c(Cl)c3)cc2)c1)C(=O)O` [Example 31, (2S)-2-{[4-Methoxy-3-(N-{[4-(3,4-dichlorophenoxy)phenyl]methyl}carbamoyl)phenyl]methyl}butyric acid], for which the melting point was in the range of 139 to 141 °C.
In turn, `CC[C@@H](Cc1ccc(OC)c(C(=O)NCc2ccc(Oc3cc(F)cc(F)c3)cc2)c1)C(=O)O` [Example 10, (2S)-2-{[3-(N-{[4-(3,5-Difluorophenoxy)phenyl]methyl}carbamoyl)-4-methoxyphenyl]methyl}butyric acid] returned a melting point of 140 to 142 °C. Besides, in data set [1], the 50% effective concentration (EC50) worked out at 2.9 nM. Also, in the data set with male Beagle dog, the “Decreasing rate Total cholesterol” value is on record as 28% and the “Decreasing rate Triglyceride” value is recorded as 50%.
On to `CCCCC/C=C\C/C=C\C=C\[C@@H](O)C/C=C\CCCC(=O)O` [(8S)-HETE, reference compound], for which the EC50 in data set [1] was 1300 nM.
In turn, `CC[C@@H](Cc1ccc(OC)c(C(=O)NCc2ccc(Oc3ccc(Cl)c(C(F)(F)F)c3)cc2)c1)C(=O)O` [Example 34, (2S)-2-{[4-Methoxy-3-(N-{[4-(4-chloro-3-trifluoromethylphenoxy)phenyl]methyl}carbamoyl)phenyl]methyl}butyric acid] gave a melting point of 141 to 142 °C.
The same measure, in the same setting: with `CC[C@@H](Cc1ccc(OC)c(C(=O)NCc2ccc(Oc3ccc(Br)c(Cl)c3)cc2)c1)C(=O)O` [Example 33, (2S)-2-{[4-Methoxy-3-(N-{[4-(4-bromo-3-chlorophenoxy)phenyl]methyl}carbamoyl)phenyl]methyl}butyric acid] the figure was 140 to 142 °C; with `CC[C@@H](Cc1ccc(OC)c(C(=O)NCc2ccc(Oc3ccc(Cl)c(F)c3)cc2)c1)C(=O)O` [Example 32, (2S)-2-{[4-Methoxy-3-(N-{[4-(4-chloro-3-fluorophenoxy)phenyl]methyl}carbamoyl)phenyl]methyl}butyric acid], 117 to 118 °C.
The compound `CC[C@@H](Cc1ccc(OC)c(C(=O)NCc2ccc(Oc3cc(F)c(F)c(F)c3)cc2)c1)C(=O)OC` [Example 16, Methyl (2S)-2-{[4-methoxy-3-(N-{[4-(3,4,5-trifluorophenoxy)phenyl]methyl}carbamoyl)phenyl]methyl}butyrate] returned an EC50 in data set [1] of 2.3 nM. In other words, the single-digit nanomolar range.
On to `CC[C@@H](Cc1ccc(OC)c(C(=O)NCc2ccc(Oc3cc(F)cc(C(F)(F)F)c3)cc2)c1)C(=O)O` [Example 35, (2S)-2-{[4-Methoxy-3-(N-{[4-(3-fluoro-5-trifluoromethylphenoxy)phenyl]methyl}carbamoyl)phenyl]methyl}butyric acid], for which the melting point lay within 125 to 128 °C.
`CC[C@@H](Cc1ccc(OC)c(C(=O)NCc2ccc(Oc3cc(C(F)(F)F)cc(C(F)(F)F)c3)cc2)c1)C(=O)O` [Example 15, (2S)-2-({3-[N-({4-[3,5-Bis(trifluoromethyl)phenoxy]phenyl}methyl)carbamoyl]-4-methoxyphenyl}methyl)butyric acid] had a melting point of 125 to 127 °C.
In turn, `CC[C@@H](Cc1ccc(OC)c(C(=O)NCc2ccc(Oc3cc(F)ccc3F)cc2)c1)C(=O)O` [Example 13, (2S)-2-{[3-(N-{[4-(2,5-Difluorophenoxy)phenyl]methyl}carbamoyl)-4-methoxyphenyl]methyl}butyric acid] registered a melting point of 116 to 118 °C.
`CC[C@@H](Cc1ccc(OC)c(C(=O)NCc2ccc(Oc3cc(F)c(F)c(F)c3)cc2)c1)C(=O)O` [Example 17, (2S)-2-{[4-Methoxy-3-(N-{[4-(3,4,5-trifluorophenoxy)phenyl]methyl}carbamoyl)phenyl]methyl}butyric acid] had a melting point of 133 to 135 °C.
In turn, `CC[C@@H](Cc1ccc(OC)c(C(=O)NCc2ccc(Oc3ccc(F)c(F)c3)cc2)c1)C(=O)O` [Example 9, (2S)-2-{[3-(N-{[4-(3,4-Difluorophenoxy)phenyl]methyl}carbamoyl)-4-methoxyphenyl]methyl}butyric acid] returned a melting point of 118 to 120 °C. Moreover, the EC50 in data set [1] is 1.6 nM.

Values taken from patent publication US7361783B2, “(2S)-2-ethylphenylpropionic acid derivative” (Kyorin Pharmaceutical Co., Ltd., priority 2002, dated 2008).
